Legend:
HCV NS5B = target: T1, HCV NS5B (Hepatitis C virus genotype 1b, UniProt Q9WMX2); experiment: HCV NS5B RdRp enzyme assay (standard or modified); format: biochemical; details: HCV NS5B RdRp genotype 1b enzyme; standard or modified assay not stated
T1 construct: The protein was expressed with an 18 amino acid C-terminal truncation to enhance the solubility; made in house; host or cells: E. coli BL21(DE3), pET21a
Protocol: HCV NS5B RdRp cloning, expression, and purification. The cDNA encoding the NS5B protein of HCV, genotype 1b, was cloned into the pET21a expression vector. The protein was expressed with an 18 amino acid C-terminal truncation to enhance the solubility. The E. coli competent cell line BL21(DE3) was used for expression of the protein. Cultures were grown at 37° C. for ˜4 hours until the cultures reached an optical density of 2.0 at 600 nm. The cultures were cooled to 20° C. and induced with 1 mM IPTG. Fresh ampicillin was added to a final concentration of 50 μg/ml and the cells were grown overnight at 20° C.
Cell pellets (3 L) were lysed for purification to yield 15-24 mgs of purified NS5B. The lysis buffer consisted of 20 mM Tris-HCl, pH 7.4, 500 mM NaCl, 0.5% triton X-100, 1 mM DTT, 1 mM EDTA, 20% glycerol, 0.5 mg/ml lysozyme, 10 mM MgCl2, 15 ug/ml deoxyribonuclease I, and Complete TM protease inhibitor tablets (Roche). After addition of the lysis buffer, frozen cell pellets were resuspended using a tissue homogenizer. To reduce the viscosity of the sample, aliquots of the lysate were sonicated on ice using a microtip attached to a Branson sonicator. The sonicated lysate was centrifuged at 100,000×g for 1 hr at 4° C. and filtered through a 0.2 μm filter unit (Corning).
The protein was purified using two sequential chromatography steps: Heparin sepharose CL-6B and polyU sepharose 4B (Pharmacia). The chromatography buffers were identical to the lysis buffer but contained no lysozyme, deoxyribonuclease I, MgCl2 or protease inhibitor and the NaCl concentration of the buffer was adjusted according to the requirements for charging the protein onto the column. Each column was eluted with a NaCl gradient which varied in length from 5-50 column volumes depending on the column type. After the final chromatography step, the resulting purity of the enzyme is >90% based on SDS-PAGE analysis. The enzyme was aliquoted and stored at −80° C.
Standard HCV NS5B RdRp enzyme assay. HCV RdRp genotype 1b assays were run in a final volume of 60 μl in 96 well plates (Corning 3600). The assay buffer is composed of 20 mM Hepes, pH 7.5, 2.5 mM KCl, 2.5 mM MgCl2, 1 mM DTT, 1.6 U RNAse inhibitor (Promega N2515), 0.01 mg/ml BSA (Sigma B6917), and 2% glycerol. All compounds were serially diluted (3-fold) in DMSO and diluted further in water such that the final concentration of DMSO in the assay was 2%. HCV RdRp genotype 1b enzyme was used at a final concentration of 28 nM. A polyA template was used at 6 nM, and a biotinylated oligo-dT12 primer was used at 180 nM final concentration. Template was obtained commercially (Amersham 27-4110). Biotinylated primer was prepared by Sigma Genosys. 3H-UTP was used at 0.6 μCi (0.29 μM total UTP). Reactions were initiated by the addition of enzyme, incubated at 30° C. for 60 min, and stopped by adding 25 μl of 50 mM EDTA containing SPA beads (4 μg/μl, Amersham RPNQ 0007). Plates were read on a Packard Top Count NXT after >1 hr incubation at room temperature.
Modified HCV NS5B RdRp enzyme assay. A modified enzyme assay was performed essentially as described for the standard enzyme assay except for the following: The biotinylated oligo dT12 primer was precaptured on streptavidin-coated SPA beads by mixing primer and beads in assay buffer and incubating at room temperature for one hour. Unbound primer was removed after centrifugation. The primer-bound beads were resuspended in 20 mM Hepes buffer, pH 7.5 and used in the assay at final concentrations of 20 nM primer and 0.67 μg/μl beads. Order of addition in the assay: enzyme (1.75 nM) was added to diluted compound followed by the addition of a mixture of template (0.36 nM), 3H-UTP (0.6 μCi, 0.29 μM), and primer-bound beads, to initiate the reaction; concentrations given are final. Reactions were allowed to proceed for 4 hours at 30° C.
IC50 values for compounds were determined using seven different [I]. […]

HCV replicon cells = experiment: HCV replicon FRET / luciferase assay; format: cell-based; details: Hepatitis C virus, 50% reduction in FRET or luciferase activity
Protocol: FRET Assay Preparation. The HCV FRET screening assay was performed in 96-well cell culture plates. The FRET peptide (Anaspec, Inc.) (Taliani et al., Anal. Biochem. 1996, 240, 60-67) contains a fluorescence donor, EDANS, near one end of the peptide and an acceptor, DABCYL, near the other end. The fluorescence of the peptide is quenched by […] resonance energy transfer (RET) between the donor and the acceptor, but as the NS3 protease cleaves the peptide the products are released from RET quenching and the fluorescence of the donor becomes apparent. The assay reagent was made as follows: 5× cell Luciferase cell culture lysis reagent from Promega (#E153A) diluted to 1× with dH2O, NaCl added to 150 mM final, the FRET peptide diluted to 20 μM final from a 2 mM stock.
To prepare plates, HCV replicon cells, with or without a Renilla luciferase reporter gene, were trypsinized and plated in a 96-well plate with titrated test compounds added in columns 3 through 12; columns 1 and 2 contained a control compound (HCV control inhibitor), and the bottom row contained cells with DMSO only. The plates were then placed in a CO2 incubator at 37° C.
Assays. Subsequent to addition of the test compounds described above (FRET Assay Preparation), at various times the plate was removed and Alamar blue solution (Trek Diagnostics, #00-100) was added to measure cellular toxicity. After reading in a Cytoflour 4000 instrument (PE Biosystems), plates were rinsed with PBS and then used for FRET assay by the addition of 30 ul of the FRET peptide assay reagent described above (FRET Assay Preparation) per well. The plate was then placed into the Cytoflour 4000 instrument which had been set to 340 excite/490 emission, automatic mode for up to 20 cycles and the plate read in a kinetic mode. Typically, the signal to noise using an endpoint analysis after the reads was at least three-fold. Alternatively, after Alamar blue reading, plates were rinsed with PBS, then used for luciferase assay using the Promega Dual-Glo Luciferase Assay System or the Promega EnduRen Live Cell Substrate assay.
Compound analysis was performed by quantification of the relative HCV replicon inhibition and the relative cytotoxicity values. To calculate cytoxicity values, the average Alamar Blue fluorescence signals from the control wells were set as 100% non-toxic. The individual signals in each of the compound test wells were then divided by the average control signal and multiplied by 100% to determine […]. To calculate the HCV replicon inhibition values, an average background value was obtained from the two wells containing the highest amount of HCV control inhibitor at the end of the assay period. These numbers were similar to those obtained from naïve Huh-7 cells. The background numbers were then subtracted from the average signal obtained from the control wells and this number was used as 100% activity. The individual signals in each of the compound test wells were then divided by the averaged control values after background subtraction and multiplied by 100% to determine percent activity. EC50 values were calculated as the concentration which caused a 50% reduction in FRET or luciferase activity. The two numbers generated for the compound plate, percent cytoxicity and percent activity, were used to determine compounds of interest for further analysis.

T1 sequence (Q9WMX2 2420-2992): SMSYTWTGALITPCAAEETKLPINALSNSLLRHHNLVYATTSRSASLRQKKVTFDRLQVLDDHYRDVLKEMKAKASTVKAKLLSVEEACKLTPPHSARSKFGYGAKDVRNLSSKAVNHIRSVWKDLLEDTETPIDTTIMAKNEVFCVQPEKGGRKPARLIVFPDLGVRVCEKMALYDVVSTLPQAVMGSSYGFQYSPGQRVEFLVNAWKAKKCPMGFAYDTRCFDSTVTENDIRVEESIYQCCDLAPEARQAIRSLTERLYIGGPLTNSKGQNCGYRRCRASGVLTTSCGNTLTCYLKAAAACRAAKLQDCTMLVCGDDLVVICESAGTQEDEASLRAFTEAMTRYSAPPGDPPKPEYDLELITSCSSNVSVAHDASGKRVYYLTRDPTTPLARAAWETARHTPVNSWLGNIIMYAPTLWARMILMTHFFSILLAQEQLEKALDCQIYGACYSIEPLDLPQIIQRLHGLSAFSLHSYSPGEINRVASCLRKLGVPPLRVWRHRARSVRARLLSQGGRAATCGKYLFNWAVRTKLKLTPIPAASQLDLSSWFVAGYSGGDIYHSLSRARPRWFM

SMILES: COc1ccc2c(c1)C1CC1(C(=O)N1C[C@@H]3CCCN3C[C@@H]1CC(C)C)Cn1c-2c(C2CCCCC2)c2ccc(C(=O)NS(=O)(=O)N(C)C)cc21 (some centres unmarked)
- IC50 (HCV NS5B): 0.00458 to 0.5 µM
- EC50 (HCV replicon cells): 0.00458 to 0.5 µM
